Legend:
Mus musculus = assay: In vivo effective dose required for inhibiting (+/-)-DOI-induced (2.5 mg/kg, ip) twitches in mice; format: functional
[1] = target: T1, 5-hydroxytryptamine receptor 1A (Rattus norvegicus, UniProt P19327); assay: Displacement of [3H]8-OH-DPAT from 5-hydroxytryptamine 1A receptor of rat hippocampus; format: tissue-based
T1 sequence (P19327 whole entry): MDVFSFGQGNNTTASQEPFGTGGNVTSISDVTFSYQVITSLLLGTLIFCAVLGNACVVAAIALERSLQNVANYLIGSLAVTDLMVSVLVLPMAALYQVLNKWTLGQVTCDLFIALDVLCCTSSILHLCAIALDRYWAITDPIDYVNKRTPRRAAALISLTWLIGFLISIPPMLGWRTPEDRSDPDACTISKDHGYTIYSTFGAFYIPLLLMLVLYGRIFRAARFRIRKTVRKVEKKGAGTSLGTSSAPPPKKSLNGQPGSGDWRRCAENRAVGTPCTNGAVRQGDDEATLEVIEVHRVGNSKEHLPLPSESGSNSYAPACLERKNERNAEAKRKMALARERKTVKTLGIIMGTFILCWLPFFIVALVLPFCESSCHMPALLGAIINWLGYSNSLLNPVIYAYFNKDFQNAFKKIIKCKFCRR

[2] = target: 5-hydroxytryptamine receptor 2A (Rattus norvegicus, UniProt P14842); assay: Displacement of [3H]- Ketanserin from rat cortex 5-hydroxytryptamine 2A receptor
Rattus norvegicus [3] = assay: Tested for induction of lower lip retraction(LLR) in rats at 10 mg/kg, ip, given 15 min before the test; format: functional
Rattus norvegicus [4] = assay: Dose dependendt inhibition of 8-OH-DPAT(1 mg/kg, sc) induced lower lip retraction(LLR) in rats pre-administered 20 mg/kg ip dose; format: functional; conditions: route intraperitoneal
Rattus norvegicus [5] = assay: Tested for induction of lower lip retraction(LLR) in rats at 20 mg/kg, ip, given 15 min before the test; format: functional
Rattus norvegicus [6] = assay: Dose dependendt inhibition of 8-OH-DPAT(1 mg/kg, sc) induced lower lip retraction(LLR) in rats pre-administered 10 mg/kg ip dose; format: functional; conditions: route intraperitoneal
Rattus norvegicus [7] = assay: Tested for induction of lower lip retraction(LLR) in rats at 20 mg/kg.; format: functional

Chain of 5-hydroxytryptamine receptor 2A (P14842 whole entry): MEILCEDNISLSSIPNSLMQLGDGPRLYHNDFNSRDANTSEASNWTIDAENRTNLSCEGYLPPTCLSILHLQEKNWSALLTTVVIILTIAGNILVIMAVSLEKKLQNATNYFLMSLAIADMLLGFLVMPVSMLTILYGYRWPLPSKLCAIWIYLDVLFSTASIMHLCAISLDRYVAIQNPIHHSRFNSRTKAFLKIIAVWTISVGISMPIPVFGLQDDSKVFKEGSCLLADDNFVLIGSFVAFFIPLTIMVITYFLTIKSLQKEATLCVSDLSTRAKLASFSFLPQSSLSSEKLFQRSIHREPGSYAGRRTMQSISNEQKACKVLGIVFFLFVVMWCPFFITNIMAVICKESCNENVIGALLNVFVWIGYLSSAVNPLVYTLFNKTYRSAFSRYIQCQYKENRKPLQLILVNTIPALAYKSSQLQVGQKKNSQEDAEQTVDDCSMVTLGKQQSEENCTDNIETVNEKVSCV

| SMILES | Ki [1] [µM] | Ki [2] [µM] | ED50 (Mus musculus) [mg/kg] | Induction (Rattus norvegicus [3]) | Incidence_count (Rattus norvegicus [4]) | Induction (Rattus norvegicus [5]) | Incidence_count (Rattus norvegicus [6]) | Induction (Rattus norvegicus [7]) |
| --- | --- | --- | --- | --- | --- | --- | --- | --- |
| O=C(c1ccc(F)cc1)C1CCN(CCn2c(=O)[nH]c3ccccc3c2=O)CC1 [KETANSERIN] | 1.93 | – | 0.12 | – | – | – | – | – |
| O=C1/C(=C\c2cccs2)c2ccccc2N1CCCN1CCN(c2cccc(Cl)c2)CC1 | 20.5 | 0.138 | – | – | – | – | – | – |
| COc1ccc(/C=C2\C(=O)N(CCCN3CCN(c4cccc(Cl)c4)CC3)c3ccccc32)cc1 | – | 0.036 | 16 | – | – | – | – | – |
| O=C1/C(=C/c2ccc(Cl)cc2)c2ccccc2N1CCCN1CCN(c2cccc(Cl)c2)CC1 | 1.61 | 0.032 | 20 | – | – | – | – | – |
| O=C1Cc2ccccc2N1CCCN1CCN(c2cccc(Cl)c2)CC1 | 0.029 | 0.025 | 6.5 | – | – | – | – | – |
| O=C1/C(=C/c2cccs2)c2ccccc2N1CCCN1CCN(c2cccc(Cl)c2)CC1 | > 50 | 0.064 | 16 | – | – | – | – | – |
| O=C1/C(=C\c2ccccc2)c2ccccc2N1CCCN1CCN(c2cccc(Cl)c2)CC1 | 0.054 | 0.056 | 27.5 | 0.1 | 0.8 | – | 1.9 | 0.2 |

Continued by falling Ki [1], values first:

| Ki [1] [µM] | Ki [2] [µM] | SMILES | ED50 (Mus musculus) [mg/kg] | Induction (Rattus norvegicus [3]) | Incidence_count (Rattus norvegicus [4]) | Induction (Rattus norvegicus [5]) | Incidence_count (Rattus norvegicus [6]) | Induction (Rattus norvegicus [7]) |
| --- | --- | --- | --- | --- | --- | --- | --- | --- |
| 0.538 | 0.02 | COc1ccc(/C=C2/C(=O)N(CCCN3CCN(c4cccc(Cl)c4)CC3)c3ccccc32)cc1 | 28.5 | – | – | – | – | – |
| 0.399 | 0.038 | O=C1/C(=C/c2ccccc2)c2ccccc2N1CCCN1CCN(c2cccc(Cl)c2)CC1 | 28.5 | – | – | – | – | – |
| 0.204 | 0.366 | O=C1/C(=C\c2ccc(Cl)cc2)c2ccccc2N1CCCN1CCN(c2cccc(Cl)c2)CC1 | 15 | – | – | – | – | – |
| 0.101 | 0.007 | O=C1/C(=C/c2cccnc2)c2ccccc2N1CCCN1CCN(c2cccc(Cl)c2)CC1 | 9.5 | – | – | – | – | – |
| 0.057 | 0.02 | O=C1/C(=C\c2cccnc2)c2ccccc2N1CCCN1CCN(c2cccc(Cl)c2)CC1 | 27 | 0.1 | 0.9 | 0.1 | 2.3 | – |
